In US20250082931A1, “Treating Gastric Cancer Using TTFields Combined with XELOX, FOLFOX or the Individual Constituents Thereof” (Novocure GmbH, priority 2019, published 2025):

Assays:
[1] = tested on: KATO III cells; experiment: Apoptosis analysis by Annexin V / 7AAD staining; type: cell-based; settings: 72 h
Protocol: After 72 h of treatment the media and the cells were collected, and cytotoxicity was determined by cell counts. Cells (including cells from the media) were stained for Annexin V and 7AAD for apoptosis analysis. For the testing of the clonogenic effect, cells were seeded for colonies.
(§1) Cells were seeded on inovitro dishes and petri dishes 24 h before starting the experiments. Media containing the indicated concentration of each chemotherapy component alone or FOLFOX and control media was added to the cells and the dishes were connected to TTFields (as in SOP-BI-009) or grown in 37° C., 5% CO2 for 72 h. Each treatment included 8 repeats (8 dishes). The media was replaced every 24 h. At the end of the experiment the cells were collected, and cytotoxicity was determined by cell counts, small number of cells were seeded for colonies and the cells (including cells from the media) were stained for Annexin V and 7AAD for apoptosis analysis.
Apoptotic effect: Average of cell fraction of each marker staining (Annexin V and 7AAD) of at least 5 dishes from each treatment was calculated in Excel software. The averages from these repeats was calculated to averages and is presented in stacked bar graph using GraphPed software.

[2] = tested on: AGS cells
Protocol: (§2) During the treatment the media of all dishes was replaced every 24 h (“hours”).
(§3) After 72 h of treatment the media and the cells were collected, and cytotoxicity was determined by cell counts.
as §1
(§4) A TTFields generator (Inovitro systems) was used to apply the treatment to the cells.
(§5) Cytotoxic effect: Average and standard deviation of cell number of at least 5 dishes from each treatment was calculated in Excel software. The averages from these repeats was calculated to averages and standard error and is presented as percent from control (no drug treatment) in XY graph of points with error bars using GraphPed software. Significant was determine by 2-way ANOVA followed Multiple comparison using GraphPed software.

[3] = tested on: KATO III cells
Protocol: as §2, §3, §1, §4, §5

[4] = tested on: KATO III cells; experiment: Clonogenic effect (colonies count); settings: for colonies count: 72 h;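 for all read-outs here: after treatment, KATO III cells were reseeded and grown 6–14 days, then colonies were fixed, stained and counted, expressed as percent of untreated (no drug) control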
Protocol: After 72 h of treatment the media and the cells were collected, and cytotoxicity was determined by cell counts. […] For the testing of the clonogenic effect, cells were seeded for colonies.
(§6) After 6-14 days the colonies were fixed, stained and counted to determine clonogenic effect. The overall effect was calculated by multiplying the cytotoxic effect and the clonogenic effect.
Clonogenic effect: The colonies from each well were counted using ImageJ software. Average and standard deviation of colony number of at least 5 wells from each treatment were calculated in excel software. The averages from these repeats was calculated to averages and standard errors and is presented as percent from control (no drug treatment) in XY graph of points with error bars using GraphPed software. Significant was determine by 2-way ANOVA followed Multiple comparison using GraphPed software.

[5] = tested on: KATO III cells; experiment: Overall effect (cytotoxic effect x clonogenic effect); settings: 72 h
Protocol: as §6
Overall effect: Each colony number was multiply in the percent of cytotoxic effect of its dish and averages and standard deviations of each treatment were calculated in Excel software. […] Significant was determine by 2-way ANOVA followed Multiple comparison using GraphPed software.

[6] = tested on: AGS cells; experiment: Cytotoxic effect by cell count after 72 h, with and without TTFields
Protocol: as §2, §3, §1, §4, §5

[7] = tested on: KATO III cells; experiment: as above
Protocol: as §2, §3, §1, §4, §5

[8] = 4.5 nM, + TTFields 150 kHz 1.6 V/cm
[9] = 13.5 nM, + TTFields 150 kHz 1.6 V/cm
[10] = 40 nM, + TTFields 150 kHz 1.6 V/cm
[11] = FOLFOX experiment, 1.5 uM, + TTFields 150 kHz 1.6 V/cm
[12] = FOLFOX experiment, 1.5 uM, no TTFields
[13] = 1.5 uM, + TTFields 150 kHz 1.6 V/cm
[14] = 4.5 uM, + TTFields 150 kHz 1.6 V/cm
[15] = 13.5 uM, + TTFields 150 kHz 1.6 V/cm
[16] = 40 uM, + TTFields 150 kHz 1.6 V/cm

## O=c1[nH]cc(F)c(=O)[nH]1 [5-FU, 5-fluorouracil]
[1]; 1.5 nM, no TTFields
  AnnV− 7AAD+ cell fraction: 1.95%
  AnnV− 7AAD− cell fraction: 74.64%
[1]; [8]
  AnnV+ 7AAD+ cell fraction: 20.44%
  AnnV+ 7AAD− cell fraction: 13.34%
  AnnV− 7AAD+ cell fraction: 4.25%
  AnnV− 7AAD− cell fraction: 61.98%
[1]; 4.5 nM, no TTFields
  AnnV+ 7AAD+ cell fraction: 11.92%
  AnnV+ 7AAD− cell fraction: 11.00%
  AnnV− 7AAD+ cell fraction: 3.59%
  AnnV− 7AAD− cell fraction: 73.50%
[1]; [9]
  AnnV+ 7AAD+ cell fraction: 17.18%
  AnnV+ 7AAD− cell fraction: 16.21%
  AnnV− 7AAD+ cell fraction: 2.01%
  AnnV− 7AAD− cell fraction: 64.61%
[1]; 13.5 nM, no TTFields
  AnnV+ 7AAD+ cell fraction: 11.72%
  AnnV+ 7AAD− cell fraction: 12.44%
  AnnV− 7AAD+ cell fraction: 2.22%
  AnnV− 7AAD− cell fraction: 73.64%
[1]; [10]
  AnnV+ 7AAD+ cell fraction: 21.25%
  AnnV+ 7AAD− cell fraction: 11.40%
  AnnV− 7AAD+ cell fraction: 3.58%
  AnnV− 7AAD− cell fraction: 63.76%
[1]; 40 nM, no TTFields
  AnnV+ 7AAD+ cell fraction: 12.48%
  AnnV+ 7AAD− cell fraction: 10.55%
  AnnV− 7AAD+ cell fraction: 3.42%
  AnnV− 7AAD− cell fraction: 73.55%
[1]; [11]
  AnnV+ 7AAD+ cell fraction: 32.59%
  AnnV+ 7AAD− cell fraction: 16.09%
  AnnV− 7AAD+ cell fraction: 1.39%
  AnnV− 7AAD− cell fraction: 49.94%
[1]; [12]
  AnnV+ 7AAD+ cell fraction: 22.22%
  AnnV+ 7AAD− cell fraction: 11.36%
  AnnV− 7AAD+ cell fraction: 0.96%
  AnnV− 7AAD− cell fraction: 65.47%
[2]
  cytotoxic effect of drug + TTFields compared to drug alone: significantly higher
[3]
  cytotoxic effect of drug + TTFields compared to drug alone: significantly higher
[4]; [13]
  colonies count: 50 % from control
[4]; 1.5 uM, no TTFields
  colonies count: 83 % from control
[4]; [14]
  colonies count: 38 % from control
[4]; 4.5 uM, no TTFields
  colonies count: 55 % from control
[4]; [15]
  colonies count: 8 % from control
[4]; 13.5 uM, no TTFields
  colonies count: 9 % from control
[4]; [16]
  colonies count: 1 % from control
[4]; 40 uM, no TTFields
  colonies count: 2 % from control
[4]; Two-way ANOVA P<0.001
  colonies number (clonogenic effect and overall effect), drug + TTFields compared to drug alone: significant reduction in colonies number
[5]; [13]
  overall effect (colonies count multiplying the cytotoxic effect): 24 % from control
[5]; 1.5 uM, no TTFields
  overall effect (colonies count multiplying the cytotoxic effect): 58 % from control
[5]; [14]
  overall effect (colonies count multiplying the cytotoxic effect): 18 % from control
[5]; 4.5 uM, no TTFields
  overall effect (colonies count multiplying the cytotoxic effect): 34 % from control
[5]; [15]
  overall effect (colonies count multiplying the cytotoxic effect): 3 % from control
[5]; 13.5 uM, no TTFields
  overall effect (colonies count multiplying the cytotoxic effect): 4 % from control
[5]; [16]
  overall effect (colonies count multiplying the cytotoxic effect): 0 % from control
[5]; 40 uM, no TTFields
  overall effect (colonies count multiplying the cytotoxic effect): 0 % from control
[6]; 0.5 uM, + TTFields 150 kHz 1.0 V/cm
  cell count: 61 % from control
[6]; 0.5 uM, no TTFields
  cell count: 90 % from control
[6]; 1.5 uM, + TTFields 150 kHz 1.0 V/cm
  cell count: 47 % from control
[6]; 1.5 uM, no TTFields
  cell count: 83 % from control
[6]; 4.5 uM, + TTFields 150 kHz 1.0 V/cm
  cell count: 27 % from control
[6]; 4.5 uM, no TTFields
  cell count: 52 % from control
[6]; 13.5 uM, + TTFields 150 kHz 1.0 V/cm
  cell count: 15 % from control
[6]; 13.5 uM, no TTFields
  cell count: 24 % from control
[6]; 40 uM, + TTFields 150 kHz 1.0 V/cm
  cell count: 19 % from control
[6]; 40 uM, no TTFields
  cell count: 25 % from control
[6]; FOLFOX experiment, 0.5 uM, + TTFields 150 kHz 1.0 V/cm
  cell count: 61 % from control
[6]; FOLFOX experiment, 0.5 uM, no TTFields
  cell count: 79 % from control
[7]; [13]
  cell count: 47 % from control
[7]; 1.5 uM, no TTFields
  cell count: 70 % from control
[7]; [14]
  cell count: 42 % from control
[7]; 4.5 uM, no TTFields
  cell count: 56 % from control
[7]; [15]
  cell count: 34 % from control
[7]; 13.5 uM, no TTFields
  cell count: 47 % from control
[7]; [16]
  cell count: 32 % from control
[7]; 40 uM, no TTFields
  cell count: 34 % from control
[7]; [11]
  cell count: 50 % from control
[7]; [12]
  cell count: 73 % from control
